From ChEMBL document CHEMBL1201862, “PubChem BioAssay data set” (2004)
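Method: 48-hour compound exposure of cells in 96-well plates, five concentrations, linear interpolation of endpoints. GI50 is the concentration that inhibits growth by half.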 Activity calls are given as the source filed them. Rule as the data show it: active = GI50 up to about 1.1 µM and inactive = higher.

Legend:
Experiment in all cases: inhibition of tumour cell growth, NCI panel, 48 h
A498 = test system: A498
SF-295 = test system: SF-295
TK-10 = test system: TK-10
SK-MEL-28 = test system: SK-MEL-28
OVCAR-3 = test system: OVCAR-3
HCC 2998 = test system: HCC 2998
ACHN = test system: ACHN
UACC-62 = test system: UACC-62
SK-OV-3 = test system: SK-OV-3
786-0 = test system: 786-0
LOX IMVI = test system: LOX IMVI
KM12 = test system: KM12
OVCAR-5 = test system: OVCAR-5
M14 = test system: M14
HOP-62 = test system: HOP-62
HCT-116 = test system: HCT-116
HOP-92 = test system: HOP-92

| Structure (SMILES) | GI50 (A498) | GI50 (SF-295) | GI50 (TK-10) | GI50 (SK-MEL-28) | GI50 (OVCAR-3) | GI50 (HCC 2998) | GI50 (ACHN) | GI50 (UACC-62) | GI50 (SK-OV-3) | GI50 (786-0) | GI50 (LOX IMVI) | GI50 (KM12) | GI50 (OVCAR-5) | GI50 (M14) | GI50 (HOP-62) | GI50 (HCT-116) | GI50 (HOP-92) |
| --- | --- | --- | --- | --- | --- | --- | --- | --- | --- | --- | --- | --- | --- | --- | --- | --- | --- |
| O=C1CNC(=O)c2[nH]cnc2N1 | > 100 µM (inactive) | > 100 µM (inactive) | > 100 µM (inactive) | > 100 µM (inactive) | > 100 µM (inactive) | > 100 µM (inactive) | > 100 µM (inactive) | > 100 µM (inactive) | > 100 µM (inactive) | > 100 µM (inactive) | > 100 µM (inactive) | > 100 µM (inactive) | > 100 µM (inactive) | > 100 µM (inactive) | – | – | – |
| O=C(CC1(O)C(=O)Nc2c(Cl)ccc(Cl)c21)c1ccc2ccccc2c1 (stereo unspecified) | 16.3 µM (inactive) | 4.92 µM (inactive) | 16.2 µM (inactive) | 14.8 µM (inactive) | 4.17 µM (inactive) | 13.1 µM (inactive) | 12.9 µM (inactive) | 3.24 µM (inactive) | 11.9 µM (inactive) | 6.25 µM (inactive) | 11.2 µM (inactive) | 4.69 µM (inactive) | 17.3 µM (inactive) | 8.85 µM (inactive) | 29 µM (inactive) | 11.7 µM (inactive) | – |
| CN1C(c2ccccc2)CS(=O)(=O)CS1(=O)=O (stereo unspecified) | > 100 µM (inactive) | > 100 µM (inactive) | > 100 µM (inactive) | > 100 µM (inactive) | 30.1 µM (inactive) | > 100 µM (inactive) | > 100 µM (inactive) | > 100 µM (inactive) | > 100 µM (inactive) | > 100 µM (inactive) | > 100 µM (inactive) | > 100 µM (inactive) | > 100 µM (inactive) | > 100 µM (inactive) | > 100 µM (inactive) | > 100 µM (inactive) | – |
| CCN(CC)CCCNc1nccc2c(C)c3c(cc12)c1cnccc1n3C | 1.18 µM (inactive) | 0.206 µM (active) | 0.444 µM (active) | 0.403 µM (active) | 0.237 µM (active) | 0.0401 µM (active) | 0.353 µM (active) | 0.891 µM (active) | 0.377 µM (active) | 0.0927 µM (active) | 0.0711 µM (active) | – | – | 0.26 µM (active) | 0.116 µM (active) | 0.0564 µM (active) | – |
| O=C(NC12CC3CC(CC(C3)C1)C2)C(=O)c1c[nH]c2ccc(Cl)cc12 | – | 11.1 µM (inactive) | – | 35.4 µM (inactive) | 13.8 µM (inactive) | 32.9 µM (inactive) | 33.3 µM (inactive) | 40.1 µM (inactive) | 32.7 µM (inactive) | 6.24 µM (inactive) | 10.1 µM (inactive) | 35.6 µM (inactive) | > 100 µM (inactive) | 20 µM (inactive) | 7.13 µM (inactive) | 30.1 µM (inactive) | 22.9 µM (inactive) |
| C/C(CC(=O)Nc1cccc([N+](=O)[O-])c1)=N/NC(N)=S | – | > 100 µM (inactive) | > 100 µM (inactive) | > 100 µM (inactive) | > 100 µM (inactive) | > 100 µM (inactive) | > 100 µM (inactive) | > 100 µM (inactive) | > 100 µM (inactive) | > 100 µM (inactive) | > 100 µM (inactive) | > 100 µM (inactive) | > 100 µM (inactive) | > 100 µM (inactive) | > 100 µM (inactive) | > 100 µM (inactive) | > 100 µM (inactive) |
| N#Cc1c(CC(=O)O)cc(=O)n2c1[nH]c1ccccc12 | > 100 µM (inactive) | > 100 µM (inactive) | > 100 µM (inactive) | > 100 µM (inactive) | > 100 µM (inactive) | > 100 µM (inactive) | > 100 µM (inactive) | – | > 100 µM (inactive) | > 100 µM (inactive) | > 100 µM (inactive) | > 100 µM (inactive) | > 100 µM (inactive) | > 100 µM (inactive) | > 100 µM (inactive) | > 100 µM (inactive) | – |
| COC1=CC(=O)c2ccc(C(C)C)cc2C1(C)C1=NC(C)(C)CO1 (stereo unspecified) | – | > 100 µM (inactive) | > 100 µM (inactive) | > 100 µM (inactive) | > 100 µM (inactive) | – | > 100 µM (inactive) | > 100 µM (inactive) | > 100 µM (inactive) | > 100 µM (inactive) | – | > 100 µM (inactive) | – | > 100 µM (inactive) | > 100 µM (inactive) | > 100 µM (inactive) | 86.7 µM (inactive) |
| FC(F)(F)c1ccc2nc(Nc3ccc(Cl)c(Cl)c3)c(-c3ccccc3)nc2c1 | – | 18.7 µM (inactive) | 73.1 µM (inactive) | 82.8 µM (inactive) | 37.5 µM (inactive) | 86.7 µM (inactive) | 40.3 µM (inactive) | – | – | 12.1 µM (inactive) | 13.8 µM (inactive) | – | > 100 µM (inactive) | – | > 100 µM (inactive) | 7.66 µM (inactive) | 46.7 µM (inactive) |
| COC(=O)C(Cc1nc2ccc(Cl)cc2nc1O)C(=O)C(=O)Nc1cc(C)ccc1C (stereo unspecified) | > 100 µM (inactive) | > 100 µM (inactive) | > 100 µM (inactive) | > 100 µM (inactive) | > 100 µM (inactive) | > 100 µM (inactive) | > 100 µM (inactive) | > 100 µM (inactive) | > 100 µM (inactive) | > 100 µM (inactive) | > 100 µM (inactive) | > 100 µM (inactive) | > 100 µM (inactive) | > 100 µM (inactive) | > 100 µM (inactive) | > 100 µM (inactive) | – |
| O=C1c2ccccc2C(=O)c2cc3c(cc21)C[S+]([O-])C3 | – | > 100 µM (inactive) | > 100 µM (inactive) | > 100 µM (inactive) | > 100 µM (inactive) | > 100 µM (inactive) | > 100 µM (inactive) | > 100 µM (inactive) | > 100 µM (inactive) | > 100 µM (inactive) | > 100 µM (inactive) | > 100 µM (inactive) | > 100 µM (inactive) | > 100 µM (inactive) | > 100 µM (inactive) | – | > 100 µM (inactive) |
| Clc1cc(Cl)cc(Nc2nc3ccccc3nc2-c2cccs2)c1 | – | 22.1 µM (inactive) | 37.9 µM (inactive) | > 10 µM (inactive) | 29.1 µM (inactive) | 99.3 µM (inactive) | 19.4 µM (inactive) | > 10 µM (inactive) | 31.3 µM (inactive) | 17.9 µM (inactive) | 94.6 µM (inactive) | – | 83.4 µM (inactive) | – | 40.4 µM (inactive) | 18.5 µM (inactive) | 12.4 µM (inactive) |
| C=CCC1=C2CCCCC2CCC1=O (stereo unspecified) | > 100 µM (inactive) | > 100 µM (inactive) | > 100 µM (inactive) | > 100 µM (inactive) | > 100 µM (inactive) | – | > 100 µM (inactive) | > 100 µM (inactive) | > 100 µM (inactive) | > 100 µM (inactive) | > 100 µM (inactive) | > 100 µM (inactive) | > 100 µM (inactive) | > 100 µM (inactive) | > 100 µM (inactive) | > 100 µM (inactive) | – |
